Patent US8410138B2, “Compounds for activating TGF-beta signaling” (The Board of Trustees of the Leland Stanford Junior …, priority 2007, dated 2013)
Where two headings read alike, the source gives them in different places.

What was measured:
[1] = tested on: TGF-β signaling (SBE-SEAP reporter) in MFB-F11 cells; assay type: cell-based, mouse; conditions: for Relative TGF-β activity, fold change compared with vehicle: cell reporter assay; for TGF-β agonist activity: data of FIGS. 1A-1J
Method: All compounds were tested twice, in duplicate, using the MFB-F11 cell line. 80 compounds were selected for further study based on induction of the reporter gene in any of the replicates. These compounds were tested again in MFB-F11 or C6-H4 cells, either alone or in the presence of 100 pg/ml of TGF-β1, to test for synergistic activities.

[2] = tested on: fibroblasts lacking Smad2, Smad3 or Smad4; assay: SBE reporter signaling in fibroblasts lacking elements of the TGF-β signaling pathway; assay type: cell-based; conditions: Smad4-lacking fibroblasts; FIG. 2D
From the text: To understand how the TGF-β signaling agonists function and identify molecular genetic targets in cells, fibroblasts lacking different elements of the TGF-β3 signaling pathway, including Smad2, Smad3, and Smad4, were used in combination with plasmids encoding different inhibitors of the TGF-β signaling pathway to study TGF-β agonists in different backgrounds. For reference, the canonical TGF-β signaling pathway is illustrated in FIG. 2A. The biological actions of TGF-β1 are mediated through interactions with the type 2 TGF beta receptor (TBR2) 2 and the type I TGF beta receptor (TBRI) 3. Betaglycan 4 may participate in the binding of TGF-β1. Receptor activation leads to the phosphorylation of Smad proteins, such as Smad 2/3 5 and Smad 4 6, which translocate to the nucleus 7 to bind to the Smad DNA-binding element (SBE) 8, present in numerous genes, in combination with transcription factors (TF) 9. Smad 7 10 is inhibitory with respect to Smad 2/3 5 phosphorylation. Alternative signaling involves p38 11 and the MAP kinase pathway. TAB1 12 activates TAK1 13, which activates p38 11.
Because Smad2 and Smad3 can substitute for each other, results with Smad2 or Smad3 knock-out fibroblasts were more difficult to interpret. Nonetheless, the synergistic effect of TGF-β1 and 11H was blocked in the absence of Smad2 (FIG. 2B) or Smad3 (not shown). In these assays, signaling is reported via SBE elements, which are specific elements that bind Smad proteins. Thus, the 11H compound must signal through this element. Without being limited to theory, it is believed that the 3A compound functions as a competitive agonist of Smad binding to the SBE, representing a novel target and mode of action.

[3] = tested on: TGF-β signaling (SBE-luc reporter) in brain; assay: Bioluminescence and tissue luciferase in SBE-luc reporter mice; assay type: in vivo, mouse; conditions: peripheral administration; FIG. 3E; indicates BBB passage
From the text: Transgenic mice harboring the SBE-luc reporter gene were generated and used to test the present compositions in vivo. These “reporter mice” mice express SBE-luc (i.e., “the transgene”) in all cells of the body.^1,54 Intraperitoneal injection of luciferin into SBE-luc mice produces bioluminescence generated by luciferase and photons penetrating the skull can be imaged using sensitive camera systems.^1,54
To determine whether 3A and its analogs are bioactive in vivo and able to penetrate the blood brain barrier (BBB), TGF-β1, 3A, 22B02, or 13A04 were injected into reporter mice i.p. or s.q. The animals were then sacrificed at the indicated times following injection. […] There was no obvious activation of the reporter in other organs.
Bioactivity data were confirmed by biochemical measurements of tissue luciferase in hippocampal homogenates (FIG. 3E).
Two-month old SBE-luciferase transgenic mice receive different concentrations of a test compound either s.q., i.p., or orally by gavage. […] Following administration of the test or control compounds, mice are injected with luciferin i.p. At, e.g., 2, 8, and 16 hours following injection of luciferin, the mice are imaged to detect bioluminescence as described above. Brains may be harvested 16 hours following test compound injection, and may be divided sagittally. […]

[4] = tested on: TGF-β-responsive genes in MFB-F11 fibroblasts; assay: Microarray of TGF-β pathway gene expression in tgfb1−/− fibroblasts; assay type: cell-based, mouse; conditions: 1, 5, 24 hours
Method: (§1) FIG. 1H is a graph showing the relative amount of surviving 6-7 DIV hippocampal neurons of E16 mice following exposure to culture medium (CM) alone, 13A04 (3 μM), or CM containing Aβ at 2 or 5 μM with TGF-β1 (10 ng/ml) or 13A04 (3 μM). After 24 hours, cultures were fixed and surviving cells were counted. Data represent mean±SEM, n=3-7 fields counted per plate. All conditions were compared to Aβ using the Mann-Whitney test (* p<0.05, ** p<0.01). FIG. 1I is a graph showing the relative gene expression levels of the indicated TGF-β-responsive genes induced in MFB-F11 fibroblasts stimulated with TGF-β1 (yellow) or 13A04 (blue) for 24 h. mRNA was extracted, labeled and hybridized to gene expression arrays tailored for the TGF-β pathway.
A microarray assay was used to identify changes in gene expression caused by stimulating tgfb1^−/− fibroblasts with TGF-β1 or 13A04. mRNA was harvested 1, 5, and 24 hours following stimulation of tgfb1^−/− fibroblasts with TGF-β1 (or control) and analyzed for differential expression of 128 genes related to TGF-β signaling, using a commercially available filter array (Superarray Bioscience Corp.; FIG. 1I). […]

[5] = tested on: primary hippocampal neurons from E16 mouse embryos; assay type: cell-based; conditions: Aβ oligomers inducing 50-70% cell death; 13A04 3 μM, TGF-β1 10 ng/ml; 24 hours
Method: as §1
Moreover, the small-molecule TGF-β agonist was not toxic at 3 μM and 10 μM (not shown).
Primary mixed neuronal cultures are exposed to Aβ oligomers and treated with compounds (0 to 10 μM concentration) and cell survival is measured using lactate dehydrogenase (LDH) release or by counting 4,6-diamidino-2-phenylindole (DAPI)-stained cells. […] Neuritic dystrophy in 21 DIV neurons can also be measured by quantifying the tortuosity of neurites as described by Ferreira et al.^70 and modified by others. […] Further incubation of these cells with the present compounds provides a sensitive assay for neuroprotection.

Molecule	Relative TGF-β activity, fold change compared with vehicle ([1]; 3 μM) [fold]	Relative TGF-β activity, fold change compared with vehicle ([1]; 10 μM) [fold]	Relative TGF-β activity, fold change compared with vehicle ([1]; 30 μM) [fold]	Relative TGF-β activity, fold change compared with vehicle ([1]; 100 μM) [fold]	Signaling in the absence of Smad4 [2]	TGF-β agonist activity [1]	TGF-β signaling in vivo, tissue luciferase in hippocampal homogenates [3]	Expression of TGF-β signaling genes (Fos, Jun, Myc, Smad1, Smad2, Smad3, Interleukin-6) [4]	Protection of neurons against Aβ toxicity (survival) [5]
Cc1ccc(C(=O)N(CC(=O)N(CCc2c[nH]c3ccccc23)Cc2ccc(C(F)(F)F)cc2)C(C)C)cc1[N+](=O)[O-] [Compound 21F11]	0.8	1.6	2.7	6.5	–	–	–	–	–
COCCN(CC(=O)N(CCc1c[nH]c2ccccc12)Cc1ccc(F)cc1)C(=O)c1ccc(Cl)c([N+](=O)[O-])c1 [Compound 22B05]	1.1	1.2	1.7	2.8	–	–	–	–	–
COCCN(CC(=O)N(CCc1c[nH]c2ccccc12)Cc1ccc(OC)c(OC)c1)C(=O)C(Cl)Cl [Compound 24D04]	1.2	1.1	1.5	2.7	–	–	–	–	–
CCOC(=O)CCC(=O)N(CC(=O)N(CCc1c[nH]c2ccccc12)Cc1ccc(N(C)C)cc1)C(C)C [Compound 23D05]	0.8	1.1	1.7	4.7	–	–	–	–	–
COCCCN(CC(=O)N(CCc1c[nH]c2ccccc12)Cc1ccc(F)cc1)C(=O)c1ccc(C(F)(F)F)cc1 [Compound 22E02]	1.4	4.7	8.6	9.1	–	–	–	–	–
COCCN(CC(=O)N(CCc1c[nH]c2ccccc12)Cc1ccccc1)C(=O)Cc1cccs1 [Compound 3A, N-(2-(1H-indol-3-yl)ethyl)-N-benzyl-2-(N-(2-methoxyethyl)-2-(thiophen-2-yl)acetamido)acetamide]	1.7	2.9	5.2	11.4	not affected (or was even stronger)	TGF-β-agonists	–	–	–
COCCCN(CC(=O)N(CCc1c[nH]c2ccccc12)Cc1ccc(C(F)(F)F)cc1)C(=O)C1CC1c1ccccc1 (stereo not shown) [Compound 21A08]	1.1	1.5	1.9	2.7	–	–	–	–	–
CCOC(=O)CNC(=O)Nc1ccc(N2CCN(c3ccccc3OC)CC2)c(C(=O)NC(C)c2ccccc2)c1 (stereo not shown) [Compound 5E, ethyl 2-(3-(4-(4-(2-methoxyphenyl)piperazin-1-yl)-3-(1-phenylethylcarbamoyl)phenyl)ureido)acetate]	–	–	–	–	–	TGF-β-agonists	–	–	–
COCCCN(CC(=O)N(CCc1c[nH]c2ccccc12)Cc1ccc(F)cc1)C(=O)c1ccccc1Cl [Compound 22D03]	1.4	3.7	8.3	8.8	–	–	–	–	–
CC(C)N(CC(=O)N(CCc1c[nH]c2ccccc12)Cc1ccc(Cl)c(Cl)c1)C(=O)CC(C)(C)C [Compound 37C02]	0.7	1.0	1.4	3.1	–	–	–	–	–
TGF-β1: recombinant transforming growth factor-β1, reference activator of the TGF-β signaling pathway	–	–	–	–	blocked or strongly inhibited	–	activated TGF-β signaling in vivo	induced	consistently protected neurons and increased survival
CC(C)N(CC(=O)N(CCc1c[nH]c2ccccc12)Cc1ccc(N(C)C)cc1)C(=O)C(Cl)Cl [Compound 23B08]	1.1	1.8	3.1	4.5	–	–	–	–	–
COCCN(CC(=O)N(CCc1c[nH]c2ccccc12)Cc1ccc(F)cc1)C(=O)C(C)Cl (stereo not shown) [Compound 13F03]	1.3	1.9	3.8	9.1	–	–	–	–	–
CC(C)(CCl)C(=O)N(CC(=O)N(CCc1c[nH]c2ccccc12)Cc1ccccc1)C1CC1 [Compound 44A04]	1.2	2.3	2.7	2.8	–	–	–	–	–
